Data taken from patent US20250346616A1 (DIZAL (JIANGSU) PHARMACEUTICAL CO., LTD., priority 2022, published 2025).

How the values were obtained:
[1] = molecular target: Recombinant ROCK1 (Homo sapiens (Human), UniProt Q13464); assay: Lance Ultra Kinase Assay, ROCK1 inhibition; type: biochemical; settings: ATP at Km, 30 min pre-incubation, 1 h reaction
Method: The inhibition potency of compounds against these enzymes was assessed using Lance Ultra Kinase Assay. In brief, recombinant kinases were pre-incubated in the presence or absence of compound at room temperature for 30 minutes. The reaction was initiated by the addition of the ATP (Km) and substrate peptide which could be phosphorylated by kinases in the reaction. After 1 h incubation, the reaction was stopped by the addition of the detection reagent mix containing EDTA. The fluorescence was measured at 615 nm and 665 nm, respectively with excitation wavelength at 320 nm. The calculated signal ratio of 665 nm/615 nm is proportional to the kinase activity.

[2] = molecular target: Recombinant ROCK2 (Homo sapiens (Human), UniProt O75116); assay: Lance Ultra Kinase Assay, ROCK2 inhibition; type: biochemical; settings: ATP at Km, 30 min pre-incubation, 1 h reaction
Recombinant ROCK2, sequence (O75116 whole entry): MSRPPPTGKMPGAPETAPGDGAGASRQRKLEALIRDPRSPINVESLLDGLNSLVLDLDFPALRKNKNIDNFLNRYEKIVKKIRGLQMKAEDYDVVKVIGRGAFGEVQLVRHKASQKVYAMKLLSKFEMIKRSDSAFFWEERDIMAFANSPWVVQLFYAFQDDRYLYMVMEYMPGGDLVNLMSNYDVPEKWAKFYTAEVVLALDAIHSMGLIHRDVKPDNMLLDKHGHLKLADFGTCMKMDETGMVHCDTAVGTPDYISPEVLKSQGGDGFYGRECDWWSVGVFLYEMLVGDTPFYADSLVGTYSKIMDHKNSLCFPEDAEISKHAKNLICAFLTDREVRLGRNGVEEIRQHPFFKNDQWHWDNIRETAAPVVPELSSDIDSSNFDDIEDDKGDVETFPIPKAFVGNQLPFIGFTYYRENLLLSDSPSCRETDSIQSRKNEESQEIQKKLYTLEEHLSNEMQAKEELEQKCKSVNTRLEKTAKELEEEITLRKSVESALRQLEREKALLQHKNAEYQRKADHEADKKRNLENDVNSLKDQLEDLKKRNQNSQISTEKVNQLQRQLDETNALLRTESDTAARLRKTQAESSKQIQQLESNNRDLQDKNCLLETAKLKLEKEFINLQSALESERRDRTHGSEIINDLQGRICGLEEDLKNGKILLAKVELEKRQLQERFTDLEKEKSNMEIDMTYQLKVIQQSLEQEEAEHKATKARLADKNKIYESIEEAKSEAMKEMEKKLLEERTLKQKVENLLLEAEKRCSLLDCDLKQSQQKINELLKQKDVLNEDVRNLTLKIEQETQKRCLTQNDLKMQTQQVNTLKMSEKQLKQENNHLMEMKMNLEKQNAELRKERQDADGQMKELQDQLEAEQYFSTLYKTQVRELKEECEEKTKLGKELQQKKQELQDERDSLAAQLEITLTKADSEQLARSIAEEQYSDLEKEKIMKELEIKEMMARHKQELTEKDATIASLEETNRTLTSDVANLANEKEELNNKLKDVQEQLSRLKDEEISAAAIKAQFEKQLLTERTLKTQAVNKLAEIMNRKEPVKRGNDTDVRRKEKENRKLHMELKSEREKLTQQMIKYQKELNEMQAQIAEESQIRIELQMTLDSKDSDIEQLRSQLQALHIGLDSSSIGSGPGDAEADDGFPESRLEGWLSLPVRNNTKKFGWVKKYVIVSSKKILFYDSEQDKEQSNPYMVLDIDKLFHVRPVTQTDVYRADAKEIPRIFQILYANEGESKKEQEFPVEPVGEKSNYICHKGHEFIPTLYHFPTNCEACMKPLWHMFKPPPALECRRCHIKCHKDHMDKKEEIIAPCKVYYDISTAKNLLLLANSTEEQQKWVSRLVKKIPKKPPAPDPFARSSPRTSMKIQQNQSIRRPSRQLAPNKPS

Recombinant ROCK1, sequence (Q13464 whole entry): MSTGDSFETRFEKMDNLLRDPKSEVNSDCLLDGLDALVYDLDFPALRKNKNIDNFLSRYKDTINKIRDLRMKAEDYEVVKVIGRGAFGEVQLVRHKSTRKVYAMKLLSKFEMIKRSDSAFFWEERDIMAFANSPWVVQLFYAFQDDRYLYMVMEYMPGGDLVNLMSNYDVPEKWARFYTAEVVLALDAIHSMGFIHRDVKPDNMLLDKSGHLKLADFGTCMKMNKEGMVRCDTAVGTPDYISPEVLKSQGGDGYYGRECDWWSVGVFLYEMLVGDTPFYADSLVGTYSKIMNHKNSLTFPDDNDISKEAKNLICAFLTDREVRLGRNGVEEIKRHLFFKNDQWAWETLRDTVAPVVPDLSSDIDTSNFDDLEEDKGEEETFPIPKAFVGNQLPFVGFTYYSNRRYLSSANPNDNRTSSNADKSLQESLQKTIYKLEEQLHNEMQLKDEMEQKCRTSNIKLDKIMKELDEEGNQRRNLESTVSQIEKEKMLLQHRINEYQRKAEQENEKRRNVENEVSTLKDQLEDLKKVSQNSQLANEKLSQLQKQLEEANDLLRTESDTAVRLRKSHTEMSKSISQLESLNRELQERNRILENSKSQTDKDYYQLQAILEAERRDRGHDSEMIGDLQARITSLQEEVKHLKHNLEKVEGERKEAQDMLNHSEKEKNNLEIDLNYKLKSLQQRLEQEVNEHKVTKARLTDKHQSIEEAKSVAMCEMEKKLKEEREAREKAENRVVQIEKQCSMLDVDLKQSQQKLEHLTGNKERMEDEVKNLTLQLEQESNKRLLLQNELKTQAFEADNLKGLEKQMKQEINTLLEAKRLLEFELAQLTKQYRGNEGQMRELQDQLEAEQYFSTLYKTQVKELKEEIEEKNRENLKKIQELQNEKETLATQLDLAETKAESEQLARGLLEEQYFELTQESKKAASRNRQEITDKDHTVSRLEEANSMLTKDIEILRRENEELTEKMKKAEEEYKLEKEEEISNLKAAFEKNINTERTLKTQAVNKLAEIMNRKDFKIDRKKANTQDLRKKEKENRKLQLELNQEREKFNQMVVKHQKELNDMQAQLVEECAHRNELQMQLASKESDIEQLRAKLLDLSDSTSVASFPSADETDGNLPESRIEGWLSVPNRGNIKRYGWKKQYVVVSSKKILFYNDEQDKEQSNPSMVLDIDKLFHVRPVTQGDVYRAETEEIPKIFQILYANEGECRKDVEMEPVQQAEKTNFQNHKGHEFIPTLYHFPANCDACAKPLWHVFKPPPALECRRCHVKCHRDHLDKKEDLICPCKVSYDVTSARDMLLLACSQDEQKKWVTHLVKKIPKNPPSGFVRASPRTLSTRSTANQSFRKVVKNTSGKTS

IC50 [1] [nM] | IC50 [2] [nM] | SMILES
0.84 | 0.37 | COc1cccc(C(CN)C(=O)Nc2cccc3c(-c4cn[nH]c4)c[nH]c23)c1 (racemic) [Example 16, N-(3-(1H-pyrazol-4-yl)-1H-indol-7-yl)-3-amino-2-(3-methoxyphenyl)propanamide]
4 | 2.3 | CN1CCN(C(C(=O)Nc2cccc3c(-c4cn[nH]c4)c[nH]c23)c2ccccc2)CC1 (racemic) [Example 46, 2-(4-methylpiperazin-1-yl)-2-phenyl-N-[3-(1H-pyrazol-4-yl)-1H-indol-7-yl]acetamide]
2.2 | 0.6 | NCC(C(=O)Nc1cccc2c(-c3cn[nH]c3)c[nH]c12)c1cccc(C(=O)O)c1 (racemic) [Example 70, 3-(2-amino-1-{[3-(1H-pyrazol-4-yl)-1H-indol-7-yl]carbamoyl}ethyl)benzoic acid]
227 | 64 | NCC(C(=O)Nc1cccc2c(-c3cn[nH]c3)c[nH]c12)c1ccc(C(=O)O)cc1 (racemic) [Example 71, 4-(2-amino-1-{[3-(1H-pyrazol-4-yl)-1H-indol-7-yl]carbamoyl}ethyl)benzoic acid]
204 | 71 | NCC(C(=O)Nc1cccc2c(-c3cn[nH]c3)c[nH]c12)c1cccc(CO)c1 (racemic) [Example 75, 3-amino-2-[3-(hydroxymethyl)phenyl]-N-[3-(1H-pyrazol-4-yl)-1H-indol-7-yl]propanamide]
14 | 7.9 | NCc1cccc(C(CN)C(=O)Nc2cccc3c(-c4cn[nH]c4)c[nH]c23)c1 (racemic) [Example 76, 3-amino-2-[3-(aminomethyl)phenyl]-N-[3-(1H-pyrazol-4-yl)-1H-indol-7-yl]propanamide]
34 | 16 | CN(C)Cc1cccc(C(CN)C(=O)Nc2cccc3c(-c4cn[nH]c4)c[nH]c23)c1 (racemic) [Example 78, 3-amino-2-{3-[(dimethylamino)methyl]phenyl}-N-[3-(1H-pyrazol-4-yl)-1H-indol-7-yl]propanamide]
0.39 | 0.18 | NCC(C(=O)Nc1cccc2c(-c3cn[nH]c3)c[nH]c12)c1ccc(N)cc1 (racemic) [Example 80, 3-amino-2-(4-aminophenyl)-N-[3-(1H-pyrazol-4-yl)-1H-indol-7-yl]propanamide]
1.8 | 0.91 | NCC(C(=O)Nc1cccc2c(-c3cn[nH]c3)c[nH]c12)c1cccc(N)c1 (racemic) [Example 81, 3-amino-2-(3-aminophenyl)-N-[3-(1H-pyrazol-4-yl)-1H-indol-7-yl]propanamide]
1.3 | 0.96 | COc1ccccc1C(CN)C(=O)Nc1cccc2c(-c3cn[nH]c3)c[nH]c12 (racemic) [Example 84, 3-amino-2-(2-methoxyphenyl)-N-[3-(1H-pyrazol-4-yl)-1H-indol-7-yl]propanamide]
20 |  | N[C@@H](C(=O)Nc1cccc2c(-c3cn[nH]c3)c[nH]c12)c1ccccc1 [Example 8, (2R)-2-amino-2-phenyl-N-[3-(1H-pyrazol-4-yl)-1H-indol-7-yl]acetamide]
2.2 |  | NC[C@H](C(=O)Nc1cccc2c(-c3cn[nH]c3)c[nH]c12)c1ccccc1 [Example 14, (R)-N-(3-(1H-pyrazol-4-yl)-1H-indol-7-yl)-3-amino-2-phenylpropanamide]
1.4 |  | NC[C@@H](C(=O)Nc1cccc2c(-c3cn[nH]c3)c[nH]c12)c1ccccc1 [Example 15, (S)—N-(3-(1H-pyrazol-4-yl)-1H-indol-7-yl)-3-amino-2-phenylpropanamide]
75 |  | COC[C@H](C(=O)Nc1cccc2c(-c3cn[nH]c3)c[nH]c12)N1CCN(C)CC1 [Example 121, (2R)-3-methoxy-2-(4-methylpiperazin-1-yl)-N-[3-(1H-pyrazol-4-yl)-1H-indol-7-yl]propanamide]
6.3 |  | N[C@H](Cc1ccccc1)C(=O)Nc1cccc2c(-c3cn[nH]c3)c[nH]c12 [Example 126, (R)-N-(3-(1H-pyrazol-4-yl)-1H-indol-7-yl)-2-amino-3-phenylpropanamide]

The remaining lines, values behind:

SMILES | IC50 [1] [nM] | IC50 [2] [nM]
NCC(C(=O)Nc1cccc2c(-c3cn[nH]c3)c[nH]c12)c1ccc(CO)cc1 (racemic) [Example 1, N-(3-(1H-pyrazol-4-yl)-1H-indol-7-yl)-3-amino-2-(4-(hydroxymethyl)phenyl)propanamide] | 0.59 | 0.27
CN(C)C(=O)c1ccc(C(CN)C(=O)Nc2cccc3c(-c4cn[nH]c4)c[nH]c23)cc1 (racemic) [Example 72, 4-(2-amino-1-{[3-(1H-pyrazol-4-yl)-1H-indol-7-yl]carbamoyl}ethyl)-N,N-dimethylbenzamide] | 173 | 67
CNC(=O)c1ccc(C(CN)C(=O)Nc2cccc3c(-c4cn[nH]c4)c[nH]c23)cc1 (racemic) [Example 73, 4-(2-amino-1-{[3-(1H-pyrazol-4-yl)-1H-indol-7-yl]carbamoyl}ethyl)-N-methylbenzamide] | 82 | 20
NCc1ccc(C(CN)C(=O)Nc2cccc3c(-c4cn[nH]c4)c[nH]c23)cc1 (racemic) [Example 77, 3-amino-2-[4-(aminomethyl)phenyl]-N-[3-(1H-pyrazol-4-yl)-1H-indol-7-yl]propanamide] | 84 | 32
NCC(C(=O)Nc1cccc2c(-c3cn[nH]c3)c[nH]c12)c1ccc(O)cc1 (racemic) [Example 79, N-(3-(1H-pyrazol-4-yl)-1H-indol-7-yl)-3-amino-2-(4-hydroxyphenyl)-propanamide] | 2.9 | 1.7
COc1cc(OC)cc(C(N)C(=O)Nc2cccc3c(-c4cn[nH]c4)c[nH]c23)c1 (racemic) [Example 83, 2-amino-2-(3,5-dimethoxyphenyl)-N-[3-(1H-pyrazol-4-yl)-1H-indol-7-yl]acetamide] | 7.3 | 3.1
Cc1n[nH]cc1-c1c[nH]c2c(NC(=O)[C@H](CN)c3ccccc3)cccc12 [Example 55, (S)-3-amino-N-(3-(3-methyl-1H-pyrazol-4-yl)-1H-indol-7-yl)-2-phenylpropanamide] | 2.9 | 
Cc1n[nH]c(C)c1-c1c[nH]c2c(NC(=O)[C@H](CN)c3ccccc3)cccc12 [Example 56, (2S)-3-amino-N-[3-(3,5-dimethyl-1H-pyrazol-4-yl)-1H-indol-7-yl]-2-phenyl-propanamide] | 1190 | 
NC[C@@H](C(=O)Nc1cccc2c(-c3c[nH]nc3F)c[nH]c12)c1ccccc1 [Example 57, (S)-3-amino-N-(3-(3-fluoro-1H-pyrazol-4-yl)-1H-indol-7-yl)-2-phenylpropanamide] | 2.7 | 
N[C@@H](Cc1c[nH]cn1)C(=O)Nc1cccc2c(-c3cn[nH]c3)c[nH]c12 [Example 108, (2S)-2-amino-3-(1H-imidazol-4-yl)-N-[3-(1H-pyrazol-4-yl)-1H-indol-7-yl]propanamide] | 98 | 
O=C(Nc1cccc2c(-c3cn[nH]c3)c[nH]c12)[C@@H]1CCCN1 [Example 128, (2S)-N-[3-(1H-pyrazol-4-yl)-1H-indol-7-yl]pyrrolidine-2-carboxamide] | 111 | 
NC[C@@H](C(=O)Nc1ncnc2c(-c3cn[nH]c3)c[nH]c12)c1ccccc1 [Example 155, (2S)-3-amino-2-phenyl-N-[7-(1H-pyrazol-4-yl)-5H-pyrrolo[3,2-d]pyrimidin-4-yl]propanamide] | 0.96 | 
